The test system of experiment [1] is Primary human foreskin fibroblasts (CCD1079SK). Put plainly: Induction of type-I interferon transcripts (qRT-PCR) after IVT RNA electroporation. The experiment is classed as cell-based. The note with it: 2 μM C13H8N4OS. The protocol:
Primary human foreskin fibroblasts (CCD1079SK) were electroporated with 1 μg IVT RNA encoding for firefly luciferase and 5 μg IVT RNA encoding for destabilized GFP (luc+GFP). The cells were either left untreated or incubated with 2 μM C13H8N4OS (PKR-inhibitor). Upregulation of interferon-alpha and interferon-betatranscripts in human fibroblasts induced by RNA electroporation was observed (FIGS. 1A and 1C).
Total cellular RNA was extracted from cells with RNeasy Mini Kit or RNeasy Micro Kit (Qiagen, Hilden, Germany), reverse transcribed with oligo-dT18 using Superscript II (Invitrogen, Carlsbad, Calif., USA), and subjected to real-time quantitative analysis on ABI PRISM 7700 Sequence Detection System instrument and software (Applied Biosystems, Foster City, Calif., USA) using the QuantiTect SYBR Green PCR Kit (Qiagen). Reactions were performed in triplicates with primer amplifying a specific region of the codon optimized
Primary human foreskin fibroblasts (CCD1079SK) were electroporated with 1 μg IVT RNA encoding for firefly luciferase and 5 μg IVT RNA encoding for destabilized GFP (luc+GFP). Electroporations were performed in 2 mm gap cuvettes using optimized parameters. The cells were plated in 6-well-plates at a density of 300000 cells/well and either left untreated or incubated with 2 μM C13H8N4OS (PKR-inhibitor). 24 h later cells were harvested for total RNA extraction and reverse transcription. The induction of type-I interferons was assessed by qRT-PCR using specific primer for IFNα or IFNβ in the presence or absence of PKR-inhibitor as indicated in FIG. 1. Panels A and C show the same samples as B and D with reduced values of the y-axis.

In experiment [2] the test system is Primary human umbilical vein endothelial cells (HUVECs). The experiment is classed as cell-based.

`O=C1Nc2ccc3ncsc3c2/C1=C/c1c[nH]cn1` [C13H8N4OS, 6,8-dihydro-8-(1H-imidazol-5-ylmethylene)-7H-pyrrolo[2,3-g]benzothiazol-7-one]: in experiment [1] (24 h, with or without RNA), the IFN-α transcript induction result is reported as “induced even in the absence of RNA” and the IFN-β transcript induction entry is on record as “only in the presence of RNA”. In addition, the “interferon transcripts (IFNα, IFNβ; qRT-PCR)” value in experiment [1] (24 h after electroporation with luc+GFP IVT RNA, vs untreated) was “overwhelming increase”. The luciferase expression entry in experiment [2] (0.5 μM to 2 μM, HUVECs) is listed as “enhanced in HUVECs in a dose dependent manner”. Moreover, the “luciferase expression on additional application of inhibitor” value in experiment [2] (HUVECs cotransfected with E3 and K3, increasing concentrations of C13H8N4OS) is on record as “additively enhanced”. Besides, in experiment [2] (HUVECs, PKR inhibition), the “duration of luciferase expression compared with fibroblasts” value is reported as “not as long lasting as observed in fibroblasts”.
